Data reported in US20230286958A1, “PLASMA KALLIKREIN INHIBITORS” (Merck Sharp & Dohme LLC, priority 2020, published 2023).

What was measured:
Human plasma kallikrein = Human plasma kallikrein (Homo sapiens (Human), UniProt P03952); assay: Kallikrein Assay (fluorogenic substrate Acetyl-K-P-R-AFC); assay type: biochemical; conditions: Plasma Kallikrein (PKal)
Summary of the method: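 Ki is derived from IC50 with the Cheng-Prusoff equation, and IC50 from the inflection point of a four-parameter logistic curve. The rate of AFC release is read with 0.5 nM purified enzyme and […] substrate at room temperature or 37 °C.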

human Factor XIa = human Factor XIa (Homo sapiens (Human), UniProt P03951); assay: Factor XIa Assay (fluorogenic substrate GPR-AFC); assay type: biochemical; conditions: Factor XIa (FXIa)
human Factor XIa, sequence (P03951 388-625 limits assumed): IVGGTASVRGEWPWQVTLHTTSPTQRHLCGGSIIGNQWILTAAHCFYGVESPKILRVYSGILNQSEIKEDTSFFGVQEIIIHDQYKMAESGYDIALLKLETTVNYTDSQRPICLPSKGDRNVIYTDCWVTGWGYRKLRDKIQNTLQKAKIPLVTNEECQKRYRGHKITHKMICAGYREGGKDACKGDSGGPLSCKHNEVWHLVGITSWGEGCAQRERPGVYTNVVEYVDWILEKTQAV
human Factor XIa, sequence (P03951 19-387 partner limits assumed): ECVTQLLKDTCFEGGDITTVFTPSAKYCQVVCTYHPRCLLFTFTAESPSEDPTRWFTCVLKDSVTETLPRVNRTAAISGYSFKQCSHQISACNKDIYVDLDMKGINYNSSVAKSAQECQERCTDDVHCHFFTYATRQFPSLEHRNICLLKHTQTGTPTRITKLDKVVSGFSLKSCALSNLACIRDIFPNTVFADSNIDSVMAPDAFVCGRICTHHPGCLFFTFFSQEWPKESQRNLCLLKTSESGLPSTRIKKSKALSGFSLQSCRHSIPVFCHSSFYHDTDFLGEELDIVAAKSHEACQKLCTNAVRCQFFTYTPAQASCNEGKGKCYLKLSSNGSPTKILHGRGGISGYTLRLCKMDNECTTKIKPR

Human plasma kallikrein, sequence (P03952 391-638): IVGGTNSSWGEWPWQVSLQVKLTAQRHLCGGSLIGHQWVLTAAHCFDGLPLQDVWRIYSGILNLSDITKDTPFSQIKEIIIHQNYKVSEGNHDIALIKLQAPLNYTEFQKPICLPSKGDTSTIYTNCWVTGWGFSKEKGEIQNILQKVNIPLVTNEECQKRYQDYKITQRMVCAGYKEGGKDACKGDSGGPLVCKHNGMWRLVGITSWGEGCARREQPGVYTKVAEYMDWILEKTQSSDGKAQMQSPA
Human plasma kallikrein, sequence (P03952 20-390 partner): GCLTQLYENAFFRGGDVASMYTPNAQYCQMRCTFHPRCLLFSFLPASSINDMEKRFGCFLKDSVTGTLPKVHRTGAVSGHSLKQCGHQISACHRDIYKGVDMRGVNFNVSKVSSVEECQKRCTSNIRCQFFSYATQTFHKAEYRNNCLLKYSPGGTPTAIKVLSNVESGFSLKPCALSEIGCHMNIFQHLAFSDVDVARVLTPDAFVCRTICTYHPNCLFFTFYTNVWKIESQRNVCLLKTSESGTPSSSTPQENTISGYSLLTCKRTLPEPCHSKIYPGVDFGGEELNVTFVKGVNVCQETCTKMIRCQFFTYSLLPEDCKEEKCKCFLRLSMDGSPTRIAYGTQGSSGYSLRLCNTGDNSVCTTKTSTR

Row | Compound | IC50 (Human plasma kallikrein) | IC50 (human Factor XIa)
1 | CC(c1cnc(N2Cc3ncccc3C2=O)nc1)n1cc(NC(=O)c2cncc(-c3c(C(F)F)ccc(Cl)c3F)n2)cn1 (racemic) [Example 27, (S and R)-6-(3-Chloro-6-(difluoromethyl)-2-fluorophenyl)-N(1-(1-(2-(5-oxo-5,7-dihydro-6H-pyrrolo[3,4-b]pyridin-6-yl)pyrimidin-5-yl)ethyl)-1H-pyrazol-4-yl)pyrazine-2-carboxamide] | 14.8 nM | 5650 nM
2 | Cc1cc([C@@H](C)n2cc(NC(=O)c3cncc(-c4c(C(F)F)ccc(Cl)c4F)n3)cn2)nnc1N1C[C@H]2C[C@H]2C1=O [Example 38, 6-(3-Chloro-6-(difluoromethyl)-2-fluorophenyl)-N-(1-((R)-1-(5-methyl-6-((1R,5S)-2-oxo-3-azabicyclo[3.1.0]hexan-3-yl)pyridazin-3-yl)ethyl)-1H-pyrazol-4-yl)pyrazine-2-carboxamide] | 6.2 nM | 742 nM
3 | Cc1nc(C(C)n2cc(NC(=O)c3cncc(-c4c(C(F)(F)F)ccc(Cl)c4F)n3)cn2)cnc1N1C[C@H]2C[C@H]2C1=O (single isomer, unassigned) [Example 19, 6-(3-Chloro-2-fluoro-6-(trifluoromethyl)phenyl)-N-(1-((R or S)-1-(6-methyl-5-((1R,5S)-2-oxo-3-azabicyclo[3.1.0]hexan-3-yl)pyrazin-2-yl)ethyl)-1H-pyrazol-4-yl)pyrazine-2-carboxamide] | 3.7 nM | > 10000 nM
4 | Cc1nc(N2C[C@H]3C[C@H]3C2=O)ncc1[C@H](C)n1cc(NC(=O)c2cncc(-c3c(C(F)F)ccc(Cl)c3F)n2)cn1 [Example 22, 6-(3-Chloro-6-(difluoromethyl)-2-fluorophenyl)-N-(1-((S)-1-(4-methyl-2-((1R,5S)-2-oxo-3-azabicyclo[3.1.0]hexan-3-yl)pyrimidin-5-yl)ethyl)-1H-pyrazol-4-yl)pyrazine-2-carboxamide] | 1.8 nM | 2730 nM
5 | Cc1cc(Cn2cc(NC(=O)c3nc(-c4c(OC(F)F)ccc(Cl)c4F)cnc3C)cn2)nnc1N1C[C@H]2C[C@H]2C1=O [Example 113, 6-(3-Chloro-6-(difluoromethoxy)-2-fluorophenyl)-3-methyl-N-(1-((5-methyl-6-((1R,SS)-2-oxo-3-azabicyclo[3.1.0]hexan-3-yl)pyridazin-3-yl)methyl)-1H-pyrazol-4-yl)pyrazine-2-carboxamide] | 2.1 nM | 114 nM
6 | Cc1nc(Cn2cc(NC(=O)c3nc(-c4c(C(F)F)ccc(Cl)c4F)cnc3C)cn2)ncc1N1C[C@H]2C[C@H]2C1=O [Example 93, 6-(3-Chloro-6-(difluoromethyl)-2-fluorophenyl)-3-methyl-N-(1-((4-methyl-5-((1R,5S)-2-oxo-3-azabicyclo[3.1.0]hexan-3-yl)pyrimidin-2-yl)methyl)-1H-pyrazol-4-yl)pyrazine-2-carboxamide] | 19.9 nM | > 10000 nM
7 | CC(c1ncc(N2C[C@H]3C[C@H]3C2=O)cn1)n1cc(NC(=O)c2cncc(-c3c(C(F)F)ccc(Cl)c3F)n2)cn1 (single isomer, unassigned) [Example 5, 6-(3-Chloro-6-(difluoromethyl)-2-fluorophenyl)-N-(1-((S or R)-1-(5-((1R,5S)-2-oxo-3-azabicyclo[3.1.0]hexan-3-yl)pyrimidin-2-yl)ethyl)-1H-pyrazol-4-yl)pyrazine-2-carboxamide] | 17.2 nM | > 10000 nM
8 | Cc1ncc(-c2c(C(F)F)ccc(Cl)c2F)nc1C(=O)Nc1cnn(C(C)c2ncc(N3C[C@H]4C[C@H]4C3=O)c(C)c2N)c1 (single isomer, unassigned) [Example 118, N-(1-((R or S)-1-(3-Amino-4-methyl-5-((1R,5S)-2-oxo-3-azabicyclo[3.1.0]hexan-3-yl)pyridin-2-yl)ethyl)-1H-pyrazol-4-yl)-6-(3-chloro-6-(difluoromethyl)-2-fluorophenyl)-3-methylpyrazine-2-carboxamide] | 1 nM | 7570 nM
9 | CC(c1ccc(N2C[C@H]3C[C@H]3C2=O)nc1)n1cc(NC(=O)c2cncc(-c3c(C#N)ccc(Cl)c3F)n2)cn1 (single isomer, unassigned) [Example 89, 6-(3-Chloro-6-cyano-2-fluorophenyl)-N-(1-((S or R)-1-(6-((1R,5S)-2-oxo-3-azabicyclo[3.1.0]hexan-3-yl)pyridin-3-yl)ethyl)-1H-pyrazol-4-yl)pyrazine-2-carboxamide] | 31.3 nM | > 10000 nM
10 | CC(c1cnc(N2C[C@H]3C[C@H]3C2=O)cn1)n1cc(NC(=O)c2cncc(-c3c(C(F)F)ccc(Cl)c3F)n2)cn1 (single isomer, unassigned) [Example 20, 6-(3-Chloro-6-(difluoromethyl)-2-fluorophenyl)-N-(1-((S or R)-1-(5-((1R,5S)-2-oxo-3-azabicyclo[3.1.0]hexan-3-yl)pyrazin-2-yl)ethyl)-1H-pyrazol-4-yl)pyrazine-2-carboxamide] | 28.5 nM | > 10000 nM
11 | Cc1c(C(C)n2cc(NC(=O)c3cncc(-c4c(C(F)F)ccc(Cl)c4F)n3)cn2)cnc(N2C[C@H]3C[C@H]3C2=O)c1F (stereo partly drawn) [Example 45, 6-(3-Chloro-6-(difluoromethyl)-2-fluorophenyl)-N (1-(1-(5-fluoro-4-methyl-6-((1R,5S)-2-oxo-3-azabicyclo[3.1.0]hexan-3-yl)pyridin-3-yl)ethyl)-1H-pyrazol-4-yl)pyrazine-2-carboxamide] | 6.1 nM | 4670 nM

More lines, now with the values ahead:

Row | IC50 (Human plasma kallikrein) | IC50 (human Factor XIa) | Compound
12 | 1.8 nM | 194 nM | Cc1cc(C(C)n2cc(NC(=O)c3nc(-c4c(C(F)F)ccc(Cl)c4F)cnc3C(C)O)cn2)nnc1N1C[C@H]2C[C@H]2C1=O (single isomer, unassigned) [Example 232, 6-(3-Chloro-6-(difluoromethyl)-2-fluorophenyl)-3-((S or R)-1-hydroxyethyl)-N-(1-((R or S)-1-(5-methyl-6-((1R,5S)-2-oxo-3-azabicyclo[3.1.0]hexan-3-yl)pyridazin-3-yl)ethyl)-1H-pyrazol-4-yl)pyrazine-2-carboxamide]
13 | 47.8 nM | > 10000 nM | C[C@@H](c1cnc(N2C[C@H]3C[C@H]3C2=O)nc1)n1cc(NC(=O)c2nc(-c3c(C(F)F)ccc(Cl)c3F)cnc2C(O)C(F)(F)F)cn1 (single isomer, unassigned) [Example 177, 6-(3-Chloro-6-(difluoromethyl)-2-fluorophenyl)-N-(1-((S)-1-(2-((1R,5S)-2-oxo-3-azabicyclo[3.1.0]hexan-3-yl)pyrimidin-5-yl)ethyl)-1H-pyrazol-4-yl)-3-((R or S)-2,2,2-trifluoro-1-hydroxyethyl)pyrazine-2-carboxamide]
14 | 8.1 nM | 7730 nM | Cc1nc(N2C[C@H]3C[C@H]3C2=O)ncc1Cn1ncc(NC(=O)c2nc(-c3c(C(F)F)ccc(Cl)c3F)cnc2C)n1 [Example 184, 6-(3-Chloro-6-(difluoromethyl)-2-fluorophenyl)-3-methyl-N-(2-((4-methyl-2-((1R,5S)-2-oxo-3-azabicyclo[3.1.0]hexan-3-yl)pyrimidin-5-yl)methyl)-2H-1,2,3-triazol-4-yl)pyrazine-2-carboxamide]
15 | 0.6 nM | 510 nM | Cc1c(C(C)n2cc(NC(=O)c3cncc(-c4c(OC(F)F)ccc(Cl)c4F)n3)cn2)cnc(N2C[C@H]3C[C@H]3C2=O)c1F (single isomer, unassigned) [Example 133, 6-(3-Chloro-6-(difluoromethoxy)-2-fluorophenyl)-N-(1-((S or R)-1-(5-fluoro-4-methyl-6-((1R,5S)-2-oxo-3-azabicyclo[3.1.0]hexan-3-yl)pyridin-3-yl)ethyl)-1i-pyrazol-4-yl)pyrazine-2-carboxamide]
16 | 0.2 nM | 591 nM | Cc1ncc(-c2c(C#N)ccc(Cl)c2F)nc1C(=O)Nc1cnn(C(C)c2cnc(N3C[C@H]4C[C@H]4C3=O)c(F)c2C)c1 (single isomer, unassigned) [Example 136, 6-(3-Chloro-6-cyano-2-fluorophenyl)-N-(1-((R or S)-1-(5-fluoro-4-methyl-6-((1R,5S)-2-oxo-3-azabicyclo[3.1.0]hexan-3-yl)pyridin-3-yl)ethyl)-1H-pyrazol-4-yl)-3-methylpyrazine-2-carboxamide]
17 | 0.4 nM | 985 nM | COc1ncc(-c2c(OC(F)F)ccc(Cl)c2F)nc1C(=O)Nc1cnn(C(C)c2cnc(N3C[C@H]4C[C@H]4C3=O)c(C)n2)c1 (single isomer, unassigned) [Example 240, 6-(3-Chloro-6-(difluoromethoxy)-2-fluorophenyl)-3-methoxy-N-(1-((R or S)-1-(6-methyl-5-((1R,5S)-2-oxo-3-azabicyclo[3.1.0]hexan-3-yl)pyrazin-2-yl)ethyl)-1H-pyrazol-4-yl)pyrazine-2-carboxamide]
18 | 1.8 nM | 414 nM | COc1cc(C(C)n2cc(NC(=O)c3nc(-c4c(C(F)F)ccc(Cl)c4F)cnc3C)cn2)cnc1N1C[C@H]2C[C@H]2C1=O (single isomer, unassigned) [Example 218, 6-(3-Chloro-6-(difluoromethyl)-2-fluorophenyl)-N(1-((S or R)-1-(5-methoxy-6-((1R,5S)-2-oxo-3-azabicyclo[3.1.0]hexan-3-yl)pyridin-3-yl)ethyl)-1H-pyrazol-4-yl)-3-methylpyrazine-2-carboxamide]
19 | 3 nM | 3680 nM | COCc1ncc(-c2c(C(F)F)ccc(Cl)c2F)nc1C(=O)Nc1cnn([C@@H](C)c2cnc(N3C[C@H]4C[C@H]4C3=O)nc2)c1 [Example 175, 6-(3-Chloro-6-(difluoromethyl)-2-fluorophenyl)-3-(methoxymethy-((S)-1-(2-((1R,5S)-2-oxo-3-azabicyclo[3.1.0]hexan-3-yl)pyrimidin-5-yl)ethyl)-1H-pyrazol-4-yl)pyrazine-2-carboxamide]
20 | 0.5 nM | 149 nM | Cc1cc(C(C)n2cc(NC(=O)c3nc(-c4c(C(F)F)ccc(Cl)c4F)cnc3C)cn2)cnc1N1C[C@H]2C[C@H]2C1=O (single isomer, unassigned) [Example 120, 6-(3-Chloro-6-(difluoromethyl)-2-fluorophenyl)-3-methyl-N-(1-((R or S)-1-(5-methyl-6-((1R,5S)-2-oxo-3-azabicyclo[3.1.0]hexan-3-yl)pyridin-3-yl)ethyl)-1H-pyrazol-4-yl)pyrazine-2-carboxamide]
